According to patent US6046235A, “Sulfur-containing amino acid derivatives” (Santen Pharmaceutical Co., Ltd., priority 1996, dated 2000):

molecular target: T1, LTA4 hydrolase (Cavia porcellus, UniProt P19602); experiment: LTA4 hydrolase inhibition (LTB4 formed from LTA4, guinea pig lung enzyme preparation); assay type: biochemical; settings: Comparison Test; even at a concentration of 10^-5 M
T1 construct: Lungs were excised from a Hartley guinea pig; from tissue; host or cells: Hartley guinea pig lung, 100,000×g supernatant, 40-70% ammonium sulfate fraction, dialyzed
T1 sequence (P19602 1-611): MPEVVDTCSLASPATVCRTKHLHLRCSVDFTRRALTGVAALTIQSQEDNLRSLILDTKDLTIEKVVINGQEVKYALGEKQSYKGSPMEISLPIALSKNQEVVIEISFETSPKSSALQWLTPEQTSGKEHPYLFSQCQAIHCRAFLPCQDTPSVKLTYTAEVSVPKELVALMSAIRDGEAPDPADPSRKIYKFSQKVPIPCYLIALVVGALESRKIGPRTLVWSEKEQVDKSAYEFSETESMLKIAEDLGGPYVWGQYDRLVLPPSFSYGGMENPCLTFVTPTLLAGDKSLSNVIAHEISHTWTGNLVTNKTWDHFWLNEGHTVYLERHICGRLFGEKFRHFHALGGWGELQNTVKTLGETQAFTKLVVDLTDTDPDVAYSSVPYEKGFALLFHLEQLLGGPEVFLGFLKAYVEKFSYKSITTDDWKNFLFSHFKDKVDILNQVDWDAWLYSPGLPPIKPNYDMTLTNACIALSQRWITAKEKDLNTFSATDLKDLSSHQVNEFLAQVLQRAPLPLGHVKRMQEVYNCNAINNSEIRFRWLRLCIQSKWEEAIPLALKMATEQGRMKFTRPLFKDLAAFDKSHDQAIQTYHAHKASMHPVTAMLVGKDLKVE
Description: Effects of the present compounds on LTA4 hydrolase were examined according to the method described in the literature.
Lungs were excised from a Hartley guinea pig (body weight: 330 g). The lungs were homogenized in phosphoric acid buffer (50 mM, pH 7.4, containing 1 mM ethylenediaminetetraacetic acid (EDTA) and 1 mM dithiothreitol (DTT) having weight three times that of the lungs under ice-cooling. The homogenate was centrifuged at low speed (800×g) for 20 minutes, centrifuged at high speed (10,000×g) for 20 minutes and ultracentrifuged (100,000×g) for 60 minutes to give a supernatant. The supernatant was brought to 40% saturation by adding a saturated aqueous ammonium sulfate solution (pH 7.0-7.2, containing 1 mM DTT) dropwise under ice-cooling and centrifuged at high speed (10,000×g) for 20 minutes. The resulting supernatant was brought to 70% saturation by adding a saturated aqueous ammonium sulfate solution (pH 7.0-7.2, containing 1 mM DTT) dropwise and centrifuged at high speed (10,000×g) for 20 minutes. The obtained pellet was dissolved in 2 ml of Tris-acetic acid buffer (20 mM, pH 7.8, containing 1 mM DTT) and dialyzed in 2 liters of the solution to give the enzyme preparation.
LTA4 used, which is the substrate, was prepared by hydrolyzing LTA4 methyl ester and dissolved in ethanol.
In order to examine effects of the present compounds on the enzyme preparation, reactions were performed under the following condition using mixed solutions consisting of the composition shown in Table 1.
HEPES buffer 50 mM, pH 7.8
Enzyme preparation 0.4-0.6 mg protein
Aqueous DTT solution 3 mM
The above-mentioned solution (50 μl ) was incubated at 37° C. for one minute. To the reaction mixture was added 100 μl of a mixed liquid of acetonitrile-ethanol-acetic acid (150:50:3, volume ratio) under ice-cooling. The mixture was allowed to stand at -20° C. for 30 minutes and centrifuged at high speed (10,000×g) for five minutes to give a supernatant. An amount of LTB4 produced in the supernatant was measured by high-speed liquid chromatography.
The degree of the inhibitory effect of each test compound on LTA4 hydrolase is expressed by the inhibition rate calculated by the following equation. [formula]
A: amount of LTB4 formed in the absence of the test compound
B: amount of LTB4 formed in the presence of the test compound
Experiments were carried out under the same conditions as those of the above-mentioned "Pharmacological Test".

Row | inhibitory effect on LTA4 hydrolase | Structure (SMILES)
1 | little inhibitory effect | CC(CS)C(=O)N[C@@H](CSCc1ccccc1)C(=O)O (some centres unmarked) [known compound [I], reference compound]

same assay, conditions: Comparison Test; ratio to compound No. 2-12

Row | inhibitory effect on LTA4 hydrolase relative to that of the present compound (No. 2-12) | Structure (SMILES)
2 | about 1/100 | CC(C)(C)c1ccc(CSC[C@H](NC(=O)C(CS)Cc2ccccc2)C(=O)O)cc1 (some centres unmarked) [known compound [II], reference compound]

same assay, conditions: Comparison Test; ratio to the present compounds

Row | inhibitory effect on LTA4 hydrolase relative to those of the present compounds | Structure (SMILES)
3 | one tenth | CC(C)(C)c1ccc(CSC[C@H](NC(=O)C(CS)Cc2ccccc2)C(=O)O)cc1 (some centres unmarked) [known compound [II], reference compound]

same assay, conditions: Comparison Test; same conditions as Pharmacological Test; read-out: IC50

Row | IC50 [µM] | Structure (SMILES)
4 | 4.5 | CC(C)(C)c1ccc(CSC[C@H](NC(=O)C(CS)Cc2ccccc2)C(=O)O)cc1 (some centres unmarked) [known compound [II], reference compound]

same assay, conditions: Table 2; guinea pig lung enzyme preparation; LTA4 63 μM; 37° C., one minute; pH 7.8; read-out: IC50 (concentration required to inhibit LTA4 hydrolase by 50%)

Row | IC50 [µM] | Structure (SMILES)
5 | 0.015 | C[C@H](CS)C(=O)N[C@@H](CSCc1ccc(I)cc1)C(=O)O [Compound No. 2-25, (2R)-3-(4-Iodobenzylthio)-2-[(2S)-3-mercapto-2-methylpropionylamino]propionic acid]
6 | 0.055 | C[C@H](CS)C(=O)N[C@@H](CSC(C)(C)c1ccc(C2CCCCC2)cc1)C(=O)O [Compound No. 2-39, (2R)-3-[(4-Cyclohexyl-α,α-dimethyl)benzylthio]-2-[(2S)-3-mercapto-2-methylpropionylamino]propionic acid]
7 | 0.079 | C[C@H](CS)C(=O)N[C@@H](CSCc1ccc(C2CCCCC2)cc1)C(=O)O [Compound No. 2-35, (2R)-3-(4-Cyclohexylbenzylthio)-2-[(2S)-3-mercapto-2-methylpropionylamino]propionic acid]
8 | 0.046 | CSc1ccc(CSC[C@H](NC(=O)[C@H](C)CS)C(=O)O)cc1 [Compound No. 2-16, (2R)-2-[(2S)-3-Mercapto-2-methylpropionylamino]-3-(4-methylthiobenzylthio)propionic acid]
9 | 0.055 | CC(C)c1ccc(C(C)SC[C@H](NC(=O)[C@H](C)CS)C(=O)O)cc1 (stereo partly drawn) [Compound No. 2-30, (2R)-2-[(2S)-3-Mercapto-2-methylpropionylamino]-3-[(α-methyl-4-isopropyl)benzylthio]propionic acid]
10 | 0.068 | CC(SC[C@H](NC(=O)[C@H](C)CS)C(=O)O)c1ccc(C(C)(C)C)cc1 (stereo partly drawn) [Compound No. 2-34, (2R)-3-[(4-tert-Butyl-α-methyl)benzylthio]-2-[(2R)-3-mercapto-2-methylpropionylamino]propionic acid]
11 | 0.16 | C[C@H](CS)C(=O)N[C@@H](CSCc1ccc(S(C)(=O)=O)cc1)C(=O)O [Compound No. 2-26, (2R)-2-[(2S)-3-Mercapto-2-methylpropionylamino]-3-(4-methylsulfonylbenzylthio)propionic acid]
12 | 0.067 | CCC(SC[C@H](NC(=O)[C@H](C)CS)C(=O)O)c1ccc(C(C)C)cc1 (stereo partly drawn) [Compound No. 2-33, (2R)-3-[(α-Ethyl-4-isopropyl)benzylthio]-2-[(2S)-3-mercapto-2-methylpropionylamino]propionic acid]

Continued, compound first:

Row | Structure (SMILES) | IC50 [µM]
13 | CSc1ccc(CSC[C@H](NC(=O)[C@H](C)CSC(=O)c2ccccc2)C(=O)O)cc1 [Compound No. 1-16, (2R)-2-[(2S)-3-(Benzoylthio)-2-methylpropionylamino]-3-(4-methylthiobenzylthio)propionic acid] | 0.11
14 | C[C@H](CSC(=O)c1ccccc1)C(=O)N[C@@H](CSCc1ccc(Cl)cc1)C(=O)O [Compound No. 1-23, (2R)-2-[(2S)-3-(Benzoylthio)-2-methylpropionylamino]-3-(4-chlorobenzylthio)propionic acid] | 0.3
15 | CC(C)c1ccc(CSC[C@H](NC(=O)[C@H](C)CSC(=O)c2ccccc2)C(=O)O)cc1 [Compound No. 1-10, (2R)-2-[(2S)-3-(Benzoylthio)-2-methylpropionylamino]-3-(4-isopropylbenzylthio)propionic acid] | 0.12
16 | CCCc1ccc(CSC[C@H](NC(=O)[C@H](C)CSC(=O)c2ccccc2)C(=O)O)cc1 [Compound No. 1-9, (2R)-2-[(2S)-3-(Benzoylthio)-2-methylpropionylamino]-3-(4-propylbenzylthio)propionic acid] | 0.17
17 | C[C@H](CSC(=O)c1ccccc1)C(=O)N[C@@H](CSCc1ccc(OC(F)(F)F)cc1)C(=O)O [Compound No. 1-18, (2R)-2-[(2S)-3-(Benzoylthio)-2-methylpropionylamino]-3-(4-trifluoromethoxybenzylthio)propionic acid] | 0.1
18 | C[C@H](CSC(=O)c1ccccc1)C(=O)N[C@@H](CSCc1ccc(Br)cc1)C(=O)O [Compound No. 1-24, (2R)-2-[(2S)-3-(Benzoylthio)-2-methylpropionylamino]-3-(4-bromobenzylthio)propionic acid] | 0.31
19 | C[C@H](CSC(=O)c1ccccc1)C(=O)N[C@@H](CSCc1ccc(I)cc1)C(=O)O [Compound No. 1-25, (2R)-2-[(2S)-3-(Benzoylthio)-2-methylpropionylamino]-3-(4-iodobenzylthio)propionic acid] | 0.051
20 | CC(CS)C(=O)N[C@@H](CSCc1ccc(C(C)(C)C)cc1)C(=O)O (stereo partly drawn) [Compound No. 2-12, (2R)-3-(4-tert-Butylbenzylthio)-2-[(2RS)-3-mercapto-2-5 methylpropionylamino]propionic acid] | 0.058
21 | C[C@H](CSC(=O)c1ccccc1)C(=O)N[C@@H](CSCc1ccc(C(F)(F)F)cc1)C(=O)O [Compound No. 1-13, (2R)-2-[(2S)-3-(Benzoylthio)-2-methylpropionylamino]-3-(4-trifluoromethylbenzylthio)propionic acid] | 0.1
22 | C[C@H](CS)C(=O)N[C@@H](CSCc1ccc(C(F)(F)F)cc1)C(=O)O [Compound No. 2-13, (2R)-2-[(2S)-3-Mercapto-2-methylpropionylamino]-3-(4-trifluoromethylbenzylthio)propionic acid] | 0.14
23 | C[C@H](CS)C(=O)N[C@@H](CSCc1ccc(C(C)(C)C)cc1)C(=O)O [Compound No. 2-11, (2R)-3-(4-tert-Butylbenzylthio)-2-[(2S)-3-mercapto-2-methylpropionylamino]propionic acid] | 0.024
24 | C[C@H](CSC(=O)c1ccccc1)C(=O)N[C@@H](CSCc1ccc(C(C)(C)C)cc1)C(=O)O [Compound No. 1-11, (2R)-2-[(2S)-3-(Benzoylthio)-2-methylpropionylamino]-3-(4-tert-butylbenzylthio) propionic acid] | 0.032
25 | CCc1ccc(CSC[C@H](NC(=O)[C@H](C)CSC(=O)c2ccccc2)C(=O)O)cc1 [Compound No. 1-8, (2R)-2-[(2S)-3-(Benzoylthio)-2-methylpropionylamino]-3-(4-ethylbenzylthio)propionic acid] | 0.12
26 | CC(C)c1ccc(CSC[C@H](NC(=O)[C@H](C)CS)C(=O)O)cc1 [Compound No. 2-10, (2R)-3-(4-Isopropylbenzylthio)-2-[(2S)-3-mercapto-2-methylpropionylamino]propionic acid] | 0.2
27 | CCCc1ccc(CSC[C@H](NC(=O)[C@H](C)CS)C(=O)O)cc1 [Compound No. 2-9, (2R)-2-[(2S)-3-Mercapto-2-methylpropionylamino]-3-(4-propylbenzylthio)propionic acid] | 0.072
28 | CCc1ccc(CSC[C@H](NC(=O)[C@H](C)CS)C(=O)O)cc1 [Compound No. 2-8, (2R)-3-(4-Ethylbenzylthio)-2-[(2S)-3-mercapto-2-methylpropionylamino]propionic acid] | 0.28
29 | C[C@H](CSC(=O)c1ccccc1)C(=O)N[C@@H](CSCc1ccc(S(C)(=O)=O)cc1)C(=O)O [Compound No. 1-26, (2R)-2-[(2S)-3-(Benzoylthio)-2-methylpropionylamino]-3-(4-methylsulfonylbenzylthio)propionic acid] | 0.2
